The compounds below were run against human recombinant H-PGDS (Homo sapiens, UniProt O60760) (assay: Fluorescence Intensity h-PGDS TBA Enzyme Assay). Conditions: 1:175,000 human recombinant H-PGDS, highest inhibitor concentration typically 1 μM.
Format: biochemical
Method in brief: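 Readout is PGH2 depletion: after a 42 s reaction with 5.0 μM PGH2 and 2.5 mM glutathione (pH 8.0 Tris, 10 min inhibitor preincubation), Fe(II) converts leftover PGH2 to MDA, which forms a fluorescent TBA complex. IC50s come from 11-point, 3-fold duplicate curves, 4-parameter fit.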

Chain of human recombinant H-PGDS (O60760 whole entry): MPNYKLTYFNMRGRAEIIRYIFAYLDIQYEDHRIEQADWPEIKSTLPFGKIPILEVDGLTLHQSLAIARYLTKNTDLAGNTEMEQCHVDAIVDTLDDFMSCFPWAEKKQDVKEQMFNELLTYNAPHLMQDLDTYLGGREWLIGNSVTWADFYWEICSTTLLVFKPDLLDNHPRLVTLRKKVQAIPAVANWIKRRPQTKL

Row | IC50 | SMILES
1 | 21.8 nM | O=C(NCCNc1ccccc1)c1ccc(-c2cccc(F)c2)nc1 [Example 429, N-(2-Anilinoethyl)-6-(3-fluorophenyl)nicotinamide]
2 | 11.7 nM | O=C(NCCc1cccs1)c1ccc(-c2cccc(F)c2)nc1 [Example 430, 6-(3-Fluorophenyl)-N-[2-(2-thienyl)ethyl]nicotinamide]
3 | 59 nM | O=C(NC1CCN(Cc2ccc(Cl)cc2)C1=O)c1ccc(-c2cccc(F)c2)nc1 (stereo not shown) [Example 431, N-[1-(4-Chlorobenzyl)-2-oxopyrrolidin-3-yl]-6-(3-fluorophenyl)nicotinamide]
4 | 14.9 nM | O=C(NCc1ccccc1)c1ccc(-c2cccc(F)c2)nc1 [Example 432, N-Benzyl-6-(3-fluorophenyl)nicotinamide]
5 | 33.7 nM | C[C@@H](CNC(=O)c1ccc(-c2cccc(F)c2)nc1)NC(=O)OCc1ccccc1 [Example 433, Benzyl [(1S)-2-({[6-(3-fluorophenyl)pyridin-3-yl]carbonyl}amino)-1-methylethyl]carbamate]
6 | 101 nM | COc1ccc(OCCNC(=O)c2ccc(-c3cccc(F)c3)nc2)cc1 [Example 434, 6-(3-Fluorophenyl)-N-[2-(4-methoxyphenoxy)ethyl] nicotinamide]
7 | 6.12 nM | COc1cccc([C@H](C)NC(=O)c2ccc(-c3cccc(F)c3)nc2)c1 [Example 436, 6-(3-Fluorophenyl)-N-[(1S)-1-(3-methoxyphenyl)ethyl] nicotinamide]
8 | 54.3 nM | C[C@H](CNC(=O)c1ccc(-c2cccc(F)c2)nc1)NC(=O)OCc1ccccc1 [Example 437, Benzyl [(1R)-2-({[6-(3-fluorophenyl)pyridin-3-yl]carbonyl}amino)-1-methylethyl]carbamate]
9 | 20 nM | COc1ccccc1-c1nnc(CNC(=O)c2ccc(-c3cccc(F)c3)nc2)o1 [Example 439, 6-(3-Fluorophenyl)-N-{[5-(2-methoxyphenyl)-1,3,4-oxadiazol-2-yl]methyl}nicotinamide]
10 | 14.4 nM | O=C(NCCSCCO)c1ccc(-c2cccc(F)c2)nc1 [Example 440, 6-(3-Fluorophenyl)-N-{2-[(2-hydroxyethyl)thio]ethyl} nicotinamide]
11 | 45.2 nM | COc1ccc2nc(CNC(=O)c3ccc(-c4cccc(F)c4)nc3)[nH]c2c1 [Example 441, 6-(3-Fluorophenyl)-N-[(6-methoxy-1H-benzimidazol-2-yl)methyl]nicotinamide]
12 | 41.3 nM | COCCCNC(=O)c1ccc(-c2cccc(F)c2)nc1 [Example 442, 6-(3-Fluorophenyl)-N-(3-methoxypropyl)nicotinamide]
13 | 359 nM | CC(NC(=O)c1ccc(-c2cccc(F)c2)nc1)c1ccncn1 (stereo not shown) [Example 443, 6-(3-Fluorophenyl)-N-(1-pyrimidin-4-ylethyl)nicotinamide]
14 | 95.2 nM | NC(CC(=O)NC(=O)c1ccc(-c2cccc(F)c2)nc1)C1CC1 (stereo not shown) [Example 444, N-(3-Amino-3-cyclopropylpropanoyl)-6-(3-fluorophenyl) nicotinamide]
15 | 589 nM | O=C(NCC(c1ccccc1Cl)N1CCOCC1)c1ccc(-c2cccc(F)c2)nc1 (stereo not shown) [Example 445, N-[2-(2-Chlorophenyl)-2-morpholin-4-ylethyl]-6-(3-fluorophenyl)nicotinamide]
16 | 5.33 nM | O=C(NCCc1ccc(O)cc1)c1ccc(-c2cccc(F)c2)nc1 [Example 446, 6-(3-Fluorophenyl)-N-[2-(4-hydroxyphenyl)ethyl] nicotinamide]
17 | 47.3 nM | CC(C)(CO)CNC(=O)c1ccc(-c2cccc(F)c2)nc1 [Example 447, 6-(3-Fluorophenyl)-N-(3-hydroxy-2,2-dimethylpropyl) nicotinamide]
18 | 9.13 nM | Cc1cccc(-c2ccc(C(=O)NCc3nnc(-c4cccnc4)[nH]3)cn2)c1 [Example 448, 6-(3-Methylphenyl)-N-[(5-pyridin-3-yl-4H-1,2,4-triazol-3-yl)methyl]nicotinamide]
19 | 25.9 nM | Cc1cccc(-c2ccc(C(=O)NCc3ccc(S(N)(=O)=O)cc3)cn2)c1 [Example 449, N-[4-(Aminosulfonyl)benzyl]-6-(3-methylphenyl)nicotinamide]
